In ChEMBL document CHEMBL5505993, “Identification of a ferritinophagy inducer via sinomenine modification for the treatment of colorectal cancer” (Eur J Med Chem, 2024):
Activity calls are given as the source filed them.

Tests used:
[1] = Cytotoxicity against human NCM460 cells assessed as inhibition of cell growth incubated for 48 hrs by CCK-8 assay; type: toxicity, cell-based
HCT-116 [2] = experiment: Induction of […] ROS production in human HCT-116 cells incubated for 12 hrs by DCFH-DA probe based flow cytometry; type: functional, cell-based
HCT-116 [3] = experiment: Cytotoxicity against human HCT-116 cells assessed as inhibition of cell growth incubated for 12 hrs by CCK-8 assay; type: functional, cell-based; details: HCT-116, 12 h
HCT-116 [4] = experiment: Antiproliferative activity against human HCT-116 cells assessed as reduction in number of EdU-positive cell at 5 to 20 uM incubated for 9 hrs by Edu staining based analysis; type: functional; details: dose 5-20 µM
HCT-116 [5] = experiment: Induction of ferroptosis in human HCT-116 cells assessed as increase in intracellular lipid ROS accumulation at 5 to 20 uM incubated for 12 hrs by C11 BODIPY probe based flow cytometry; type: functional, cell-based; details: dose 5-20 µM
HCT-116 [6] = experiment: Induction of ferroptosis in human HCT-116 cells assessed as increase in intracellular lipid ROS accumulation at 20 uM incubated for 12 hrs in presence of ferroptosis inhibitor, deferoxamine mesylate by C11 BODIPY probe based flow cytometry; type: functional, cell-based
HCT-116 [7] = experiment: Induction of ferroptosis in human HCT-116 cells assessed as increase in 4-HNE level in presence of deferoxamine mesylate at 20 uM by ELISA; type: functional, cell-based
HCT-116 [8] = experiment: Induction of ferroptosis in human HCT-116 cells assessed as effect on SLC7A11 protein expression at 5 to 20 uM incubated for 12 hrs by Western blotting analysis; type: functional, cell-based; details: dose 5-20 µM
HCT-116 [9] = experiment: Induction of ferroptosis in human HCT-116 cells assessed as effect on ACSL4 protein expression at 5 to 20 uM incubated for 12 hrs by Western blotting analysis; type: functional, cell-based; details: dose 5-20 µM
HCT-116 [10] = experiment: Induction of ferroptosis in human HCT-116 cells assessed as increase in intracellular ferrous ion level incubated for 12 hrs by ferroOrange probe based flow cytometric analysis; type: functional, cell-based
HCT-116 [11] = experiment: Induction of ferroptosis in human HCT-116 cells assessed as increase in intracellular ferrous ion level at 20 uM incubated for 12 hrs in presence of ferroptosis inhibitor, deferoxamine mesylate by ferroOrange probe based flow cytometric analysis; type: functional, cell-based
HCT-116 [12] = experiment: Induction of ferroptosis in human HCT-116 cells assessed as increase in intracellular ferrous ion level at 20 uM incubated for 12 hrs in presence of ferroptosis inhibitor, Ferrostatin-1 by ferroOrange probe based flow cytometric analysis; type: functional, cell-based
HCT-116 [13] = experiment: Induction of ferroptosis in human HCT-116 cells assessed as increase in ferrous ion level in lysosomes at 20 uM incubated for 12 hrs by Lyso tracker red staining based confocal fluorescence microscopic analysis; type: functional, cell-based
HCT-116 [14] = experiment: Induction of ferroptosis in human HCT-116 cells assessed as increase in ferrous ion level in lysosomes at 20 uM incubated for 12 hrs by Hoechst 33342 staining based confocal fluorescence microscopic analysis; type: functional, cell-based
HCT-116 [15] = experiment: Induction of autophagy in human HCT-116 cells transfected with mRFP-GFP-LC3B assessed as formation of autophagosomes by measuring reduction in GFP to mRFP fluorescence ratio at 5 to 20 uM incubated for 12 hrs by Lyso tracker red staining based confocal fluorescence microscopic analysis; type: functional, cell-based; details: dose 5-20 µM
HCT-116 [16] = experiment: Induction of autophagy in human HCT-116 cells transfected with mRFP-GFP-LC3B assessed as formation of autolysosomes by measuring reduction in GFP to mRFP fluorescence ratio at 5 to 20 uM incubated for 12 hrs by Lyso tracker red staining based confocal fluorescence microscopic analysis; type: functional, cell-based; details: dose 5-20 µM
HCT-116 [17] = experiment: Induction of autophagy in human HCT-116 cells assessed as increase in intracellular ferrous ion level at 20 uM incubated for 12 hrs by Lyso tracker green staining based confocal microscopic analysis; type: functional, cell-based
HCT-116 [18] = experiment: Induction of autophagy in human HCT-116 cells assessed as increase in intracellular ferrous ion level at 20 uM incubated for 12 hrs in presence of autophagy inhibitor, Bafilomycin A1 by Lyso tracker green staining based confocal microscopic analysis; type: functional, cell-based
HCT-116 [19] = experiment: Induction of autophagy in human HCT-116 cells assessed as increase in 4-HNE level at 20 uM incubated for 12 hrs by ELISA; type: functional, cell-based
HCT-116 [20] = experiment: Induction of autophagy in human HCT-116 cells assessed as increase in 4-HNE level at 20 uM incubated for 12 hrs in presence of autophagy inhibitor, Bafilomycin A1 by ELISA; type: functional, cell-based
HCT-116 [21] = experiment: Induction of ferritin autophagy in human HCT-116 cells assessed as upregulation of FTH1 protein expression at 5 to 20 uM incubated for 12 hrs by Western blotting analysis; type: functional, cell-based; details: dose 5-20 µM
HCT-116 [22] = experiment: Antitumor activity against human HCT-116 cells xenografted in BALB/c mouse assessed as reduction in tumor growth at 60 mg/kg,ip administrated daily for 14 days; type: functional, organism-based; details: time 14.0 day
HCT-116 [23] = experiment: Antitumor activity against human HCT-116 cells xenografted in BALB/c mouse assessed as reduction in tumor volume at 30 mg/kg,ip administrated daily for 14 days; type: functional, organism-based; details: time 14.0 day
HCT-116 [24] = experiment: Antitumor activity against human HCT-116 cells xenografted in BALB/c mouse assessed as reduction in tumor volume at 60 mg/kg,ip administrated daily for 14 days; type: functional, organism-based; details: time 14.0 day
HCT-116 [25] = experiment: Antitumor activity against human HCT-116 cells xenografted in BALB/c mouse assessed as reduction in tumor weight at 60 mg/kg,ip administrated daily for 14 days; type: functional, organism-based; details: time 14.0 day
HCT-116 [26] = experiment: Antitumor activity against human HCT-116 cells xenografted in BALB/c mouse assessed as reduction in tumor density at 60 mg/kg,ip administrated daily for 14 days by hematoxylin and eosin staining based microscopic analysis; type: functional, organism-based; details: time 14.0 day
HCT-116 [27] = experiment: Antitumor activity against human HCT-116 cells xenografted in BALB/c mouse assessed as presence of pyknotic nucleus at 30 mg/kg,ip administrated daily for 14 days by hematoxylin and eosin staining based microscopic analysis; type: functional, organism-based; details: time 14.0 day
HCT-116 [28] = experiment: Antitumor activity against human HCT-116 cells xenografted in BALB/c mouse assessed as increase in FTH1 expression at 30 mg/kg,ip administrated daily for 14 days by immunohistochemistry; type: functional, organism-based; details: time 14.0 day
HCT-116 [29] = experiment: Antitumor activity against human HCT-116 cells xenografted in BALB/c mouse assessed as increase in FTH1 expression at 60 mg/kg,ip administrated daily for 14 days by immunohistochemistry; type: functional, organism-based; details: time 14.0 day
HCT-116 [30] = experiment: Antitumor activity against human HCT-116 cells xenografted in BALB/c mouse assessed as increase in LC3B expression at 30 mg/kg,ip administrated daily for 14 days by immunohistochemistry; type: functional, organism-based; details: time 14.0 day
[31] = Toxicity in BALB/c mouse xenografted with human HCT-116 cells assessed as histopathological changes in heart at 60 mg/kg,ip administrated daily for 14 days by hematoxylin and eosin staining based microscopic analysis; type: organism-based; details: in vivo, 336 h, time 14 day
[32] = Toxicity in BALB/c mouse xenografted with human HCT-116 cells assessed as histopathological changes in lung at 60 mg/kg,ip administrated daily for 14 days by hematoxylin and eosin staining based microscopic analysis; type: organism-based; details: in vivo, 336 h, time 14 day
[33] = Toxicity in BALB/c mouse xenografted with human HCT-116 cells assessed as histopathological changes in kidney at 30 mg/kg,ip administrated daily for 14 days by hematoxylin and eosin staining based microscopic analysis; type: organism-based; details: in vivo, 336 h, time 14 day

C=C(Cl)C(=O)NCCCCCCCCCCCC(=O)Oc1c(OC)ccc2c1[C@@]13CCN(C)[C@@H](C2)[C@H]1C=C(OC)C(=O)C3
15.1 µM: IC50 (HCT-116 [3])
inactive: Activity (HCT-116 [7]) | Activity (HCT-116 [8]) | Activity (HCT-116 [9]) | Activity (HCT-116 [11]) | Activity (HCT-116 [12]) | Activity (HCT-116 [18]) | Activity (HCT-116 [20])
Non-Toxic: Activity [31] | Activity [32] | Activity [33]
active: Activity (HCT-116 [2]) | Activity (HCT-116 [4]) | Activity (HCT-116 [5]) | Activity (HCT-116 [6]) | Activity (HCT-116 [10]) Dose-Dependent Effect | Activity (HCT-116 [13]) | Activity (HCT-116 [14]) | Activity (HCT-116 [15]) | Activity (HCT-116 [16]) | Activity (HCT-116 [17]) | Activity (HCT-116 [19]) | Activity (HCT-116 [21]) | Activity (HCT-116 [22]) | Activity (HCT-116 [23]) | Activity (HCT-116 [24]) | Activity (HCT-116 [25]) | Activity (HCT-116 [26]) | Activity (HCT-116 [27]) | Activity (HCT-116 [28]) | Activity (HCT-116 [29]) | Activity (HCT-116 [30])
19 µM: IC50 at 48 h [1]
